Tests used:
RXR receptors = conditions: cited from earlier work
RARγ [1] = molecular target: T1, RARγ (Homo sapiens, UniProt P13631); test: Binding, RARγ (ligand binding assay)
T1 sequence (P13631 1-454): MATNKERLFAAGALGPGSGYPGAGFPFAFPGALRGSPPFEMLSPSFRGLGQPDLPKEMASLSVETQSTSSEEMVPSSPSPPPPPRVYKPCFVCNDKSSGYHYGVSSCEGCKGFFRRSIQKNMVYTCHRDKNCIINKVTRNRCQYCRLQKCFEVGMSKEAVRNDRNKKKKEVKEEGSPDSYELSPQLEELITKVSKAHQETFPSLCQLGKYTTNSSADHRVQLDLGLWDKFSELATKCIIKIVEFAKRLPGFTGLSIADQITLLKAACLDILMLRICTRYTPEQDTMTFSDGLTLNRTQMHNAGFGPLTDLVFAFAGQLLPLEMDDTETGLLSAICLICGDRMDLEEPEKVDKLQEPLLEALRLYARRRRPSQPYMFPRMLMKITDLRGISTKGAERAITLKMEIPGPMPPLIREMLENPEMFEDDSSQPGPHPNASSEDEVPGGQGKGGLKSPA
From the text: (§1) The RARγ agonist selectivity of a compound can be determined by routine ligand binding assays known to one of skill in the art such as described in C. Apfel et al., Proc. Nat.

RARβ [2] = molecular target: T2, RARβ (Homo sapiens, UniProt P10826); test: Transactivation, RARβ; assay type: cell-based
T2 sequence (P10826 1-455): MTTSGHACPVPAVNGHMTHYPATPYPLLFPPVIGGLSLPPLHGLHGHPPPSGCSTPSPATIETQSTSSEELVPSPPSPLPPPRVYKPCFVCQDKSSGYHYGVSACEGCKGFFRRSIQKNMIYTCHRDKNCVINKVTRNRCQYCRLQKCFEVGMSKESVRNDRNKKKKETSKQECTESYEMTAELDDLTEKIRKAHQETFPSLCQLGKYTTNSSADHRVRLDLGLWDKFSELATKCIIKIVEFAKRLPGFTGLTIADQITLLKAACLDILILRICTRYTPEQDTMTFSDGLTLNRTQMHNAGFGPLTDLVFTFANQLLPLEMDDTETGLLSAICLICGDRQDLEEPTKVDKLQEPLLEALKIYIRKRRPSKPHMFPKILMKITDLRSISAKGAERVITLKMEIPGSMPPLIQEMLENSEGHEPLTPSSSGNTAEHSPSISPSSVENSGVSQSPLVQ
From the text: (§2) As used herein, the term "transactivation" refers to the ability of a retinoid to activate the transcription of a gene where the gene transcription is initiated by the binding of a ligand to the particular retinoic acid receptor being tested, i.e., RARα, RARβ, or RARγ. Determining the ability of a compound to transactivate a retinoic acid receptor may be performed by methods known to those of skill in the art. […] Apfel etal., Proc. Nat.

tropoelastin gene = test: RAR transactivation of steady state tropoelastin gene in normal human lung fibroblasts (CCD-16Lu); assay type: cell-based; conditions: for Tropo-elastin Expression: CCD-16Lu, 1×10^-7 M, RT-PCR, triplicate, untreated control 30.90; for tropoelastin gene induction (in words): human lung fibroblasts, compared to the control
Protocol: Transactivation of the tropoelastin gene in normal human lung fibroblasts (CCD-16Lu) was performed as described below. Cells were grown to confluence at which time fresh media +/- ATRA or selective retiniod was added to the basal culture. ATRA and/or selective retiniods were used at a concentration of 1×10^-7 M. The cell layer was lysed using a guanidinium-based buffer (TRIZOL/Sigma) for RNA extraction and analysis. Amplification of tropoelastin and GAPDH RNA was performed by standard quantitative RT-PCR (TAQMAN, Perken/Elmer) using appropriate selective primers. Tropo-elastin gene expression was normalized to the expression of standard house-keeping gene (GAPDH).
Samples were run in triplicate.

RARβ [3] = molecular target: T2, RARβ; test: Binding, RARβ (ligand binding assay)
From the text: as §1

RARα [4] = molecular target: T3, RARα (Homo sapiens, UniProt P10276); test: Transactivation, RARα; assay type: cell-based
T3 sequence (P10276 1-462): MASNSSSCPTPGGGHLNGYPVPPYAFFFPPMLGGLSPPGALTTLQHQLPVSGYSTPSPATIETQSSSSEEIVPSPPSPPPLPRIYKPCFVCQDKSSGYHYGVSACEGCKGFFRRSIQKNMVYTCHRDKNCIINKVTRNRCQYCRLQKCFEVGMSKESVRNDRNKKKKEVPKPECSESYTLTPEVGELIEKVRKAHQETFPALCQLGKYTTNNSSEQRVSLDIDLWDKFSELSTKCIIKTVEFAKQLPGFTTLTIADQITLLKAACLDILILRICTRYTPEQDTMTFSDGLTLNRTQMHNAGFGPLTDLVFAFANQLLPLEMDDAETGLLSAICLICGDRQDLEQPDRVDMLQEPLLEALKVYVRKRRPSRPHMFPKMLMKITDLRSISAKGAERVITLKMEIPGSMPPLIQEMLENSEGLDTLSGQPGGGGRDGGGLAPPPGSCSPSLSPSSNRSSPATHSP
From the text: as §2

RARγ [5] = molecular target: T1, RARγ; test: Transactivation, RARγ; assay type: cell-based
From the text: as §2

RARα [6] = molecular target: T3, RARα; test: Binding, RARα (ligand binding assay)
From the text: as §1

[7] = test system: elastase-induced emphysema; test: Alveolar repair in rat model of elastase-induced emphysema, intraperitoneal; assay type: in vivo, male Sprague Dawley rats; parameters: Alveolar Area: unit not given here; conditions: for % Repair / Alveolar Area: 0.5 mg/kg ip once daily, from 21 days post injury, 14 days; for Alveolar Area: naive 1637 +/- 153, elastase + vehicle 3570 +/- 319; for alveolar repair (in words): elastase-treated rats, 0.5 mg/kg ip; for light micrographs of lung sections (in words): rat lung damaged by elastase and then treated, compared to normal rat lung
Protocol: Animals were divided into treatment groups of approximately eight. […] Three weeks post injury ATRA or a RAR selective agonist was dissolved in DMSO (20 mg/ml) and stored at -20 C. Fresh working stocks were prepared fresh daily by dilution in corn oil to a final concentration of 2 mg/ml. […] Control groups were challenged with elastase and 21 days later treated with Vehicle (DMSO/PBS) for 14 days. Animals were sacrificed 24 hours after the last dose of by exsanguination under deep anesthesia. Blood was collected at time of exanguination for analysis of changes in blood chemistry from respective treatments. The lungs were inflated with 10% neutral buffered formalin by intratracheal instillation at a constant rate (1 ml/gram body mass/min). The lung was excised and immersed in fixative for 24 hours prior to processing. Standard methods were used to prepare 5 um paraffin sections. Sections were stained with Hematoxylin and Eosin (H%E). Computerized Morphometric analysis was performed to determine the average alveolar size and alveolar number.

[8] = Plasma triglyceride levels in rats; assay type: in vivo
Protocol: Experimental emphysema was induced in rats as described in Example 2. Three (3) weeks post injury animals were treated with vehicle (Capmul solution) or retinoids prepared in Capmul and dosed orally at 1, 3, and 10 mg/kg body weight. Animals were treated for 14 days prior to termination of study. Lung harvest and blood collection was performed as described in Example 2.
Quantitation of triglycerides contained in rat plasma was performed after using established procedures in a contact clinical laboratory facility. Briefly, plasma triglycerides were converted to dihdroxyacetone and H2 O2, by sequential treatment of plasma with lipase and glycerokinase according directions described by manufacturer of triglycerides/GPO kit (Boehringer Mannheim #1488872). H2 02 was quantitated calorimetrically in a Hitachi 911 Chemistry Analyzer. In rats normal triglyceride levels are 75-175 mg/dl.
Dosage was at 1 mg/kg/PO daily for two weeks. […] Therefore, it appears that RARα selective activity is linked to elevated triglyceride levels.

experimental emphysema = test: Alveolar repair in rat experimental emphysema, oral dosing; assay type: in vivo, rats; conditions: 1 mg/kg/PO daily for two weeks
Protocol: Three (3) weeks post injury animals were treated with vehicle (Capmul solution) or retinoids prepared in Capmul and dosed orally at 1, 3, and 10 mg/kg body weight. Animals were treated for 14 days prior to termination of study.
Dosage was at 1 mg/kg/PO daily for two weeks.

alveolar septation = conditions: postnatal administration; newborn rats; cited from earlier work
[9] = plasma, 1 mg/kg/PO daily for two weeks
[10] = plasma, 1 mg/kg/PO daily for two weeks, normal rat 75-175 mg/dl

Row | SMILES | IC50 (RARγ [1]; Table III) | EC50 (RARγ [5]; Table III) | % Repair [7] | Alveolar Area [7] | alveolar repair (in words) [7] | triglyceride levels (in words) [8, 9] | [Triglyceride] [8, 10] | % Repair (experimental emphysema) | other results
1 | CC1=C(/C=C/C(C)=C\C=C\C(C)=C\C(=O)O)C(C)(C)CCC1 [9-cis retinoic acid] |  |  |  |  |  |  |  |  | binding to RXR receptors (in words) (RXR receptors): is the natural ligand
2 | O=C(O)c1ccc(NC(=O)c2cc(C(F)(F)F)cc(C(F)(F)F)c2)cc1 [RAR Agonist 1, reference compound] | 10000 nM | 10000 nM | < 20% | 3058 +/- 160 | do not induce alveolar repair |  |  |  | IC50 (RARγ [1]; Table II): 10000 nM; EC50 (RARβ [2]; Table II): 10000 nM; Tropo-elastin Expression (tropoelastin gene): 13.93 (Elastin/GAPDH) × 10^5; tropoelastin gene induction (in words) (tropoelastin gene): did not induce the tropoelastin gene; IC50 (RARβ [3]; Table II): 10000 nM; EC50 (RARα [4]; Table II): 16.5 nM; EC50 (RARγ [5]; Table II): 10000 nM; IC50 (RARα [6]; Table II): 300 nM; light micrographs of lung sections (in words) [7]: did not reverse the change caused by elastase treatment
3 | CC(C)COc1ccc(-c2ccc3cc(C(=O)O)ccc3c2)cc1C(C)(C)C [RAR Agonist 2, reference compound] | 300 nM | 160 nM | < 20% | 3653 +/- 550 | do not induce alveolar repair |  |  |  | IC50 (RARγ [1]; Table II): 300 nM; EC50 (RARβ [2]; Table II): 39 nM; Tropo-elastin Expression (tropoelastin gene): 1.85 (Elastin/GAPDH) × 10^5; tropoelastin gene induction (in words) (tropoelastin gene): did not induce the tropoelastin gene; IC50 (RARβ [3]; Table II): 28 nM; EC50 (RARα [4]; Table II): 2000 nM; EC50 (RARγ [5]; Table II): 160 nM; IC50 (RARα [6]; Table II): 1000 nM; light micrographs of lung sections (in words) [7]: did not reverse the change caused by elastase treatment
4 | CCCCCC(=O)c1cc2c(cc1/C=C/c1ccc(C(=O)O)cc1)C(C)(C)CCC2(C)C [RAR Agonist 5] | 770 nM | 104 nM | 56% | 2502 +/- 243 | markedly induce alveolar repair | do not cause elevation in the triglyceride levels | 119 mg/dL | 40% | EC50 (RARβ [2]; Table III): 10000 nM; IC50 (RARβ [3]; Table III): 5400 nM; EC50 (RARα [4]; Table III): 10000 nM; IC50 (RARα [6]; Table III): 2300 nM
5 | CC1(C)CCOc2ccc(C(=O)/C=C/c3ccc(C(=O)O)cc3)cc21 [RAR Agonist 6] | 2410 nM | 15 nM | > 70% | 1909 +/- 207 | markedly induce alveolar repair | do not cause elevation in the triglyceride levels | 140 mg/dL | 39% | EC50 (RARβ [2]; Table III): 16 nM; IC50 (RARβ [3]; Table III): 2100 nM; EC50 (RARα [4]; Table III): 10000 nM; IC50 (RARα [6]; Table III): 3100 nM
6 | O=C(O)c1ccc2cc(-c3ccc(O)c(C45CC6CC(CC(C6)C4)C5)c3)ccc2c1 [RAR Agonist 7] |  |  | > 70% | 1817 +/- 241 | markedly induce alveolar repair |  |  | 66% | [Triglyceride] ([8]; rat, in vivo, po, 1 mg/kg): 114 mg/dL; triglyceride levels (in words) ([8]; rat, in vivo, po, 1 mg/kg): do not cause elevation in the triglyceride levels; EC50 (RARβ [2]; Table III): 2300 nM; IC50 (RARβ [3]; Table III): 4600 nM
7 | CC1=C(/C=C/C(C)=C/C=C/C(C)=C\C(=O)O)C(C)(C)CCC1 [RAR Agonist 8, reference compound] |  |  |  |  |  | either on the high end of normal or elevated | 178 mg/dL | 57.1% | 
8 | CC1(C)CCC(C)(C)c2cc(C(=O)Nc3ccc(C(=O)O)cc3)ccc21 [RAR Agonist 9] |  |  | < 20% | 3323 +/- 406 | do not induce alveolar repair |  |  |  | 
9 | CC1=C(/C=C/C(C)=C\C=C\C(C)=C\C(=O)O)C(C)(C)CCC1 [RAR Agonist 10, reference compound] |  |  |  |  |  | either on the high end of normal or elevated | 273 mg/dL | 58.3% | 
10 | C[C@@H]1C[C@H]2[C@@H]3CCC4=CC(=O)C=C[C@]4(C)[C@@]3(F)[C@@H](O)C[C@]2(C)[C@@]1(O)C(=O)CO [dexamethasone] |  |  |  |  |  |  |  |  | number of alveoli / septation in lungs (in words) (alveolar septation): inhibits the process of septation in the lungs
11 | CC1=C(/C=C/C(C)=C/C=C/C(C)=C/C(=O)O)C(C)(C)CCC1 [retinoic acid] |  |  |  |  |  |  |  |  | number of alveoli / septation in lungs (in words) (alveolar septation): increases the number of alveoli in rats
